Tests used:
AI-2 activity of O15 = assay: AI-2 bioluminescence indicator assay, APEC O15; format: cell-based, avian pathogenic E. coli (APEC) O15; conditions: Escherichia coli, read-out: % Inhibtion of AI-2 activity, serotype O15, bioluminescence vs DMSO treated control
Experimental: (§1) Overnight culture of APEC O78 prepared in LB broth was adjusted to an optical density (OD600) of 0.05 (7 × 10^7 CFU/mL) in fresh LB broth. One hundred micro-liters of the culture was transferred to a 96-well plate and 1µL (100 μM final concentration) of the compound was added to each well using a pin tool. Chloramphenicol (40 μg/mL) or kanamycin (30 μg/mL) and 1μL of 100% DMSO were included as controls in each plate. Plates were incubated at 37 °C for 10 h with shaking in a Sunrise^TM Tecan plate reader (Tecan Group Ltd. San Jose, CA, USA) and the growth was kinetically monitored every 30 min by measuring the OD at 600 nm.
(§2) The AI-2 bioluminescence assay was performed as described previously. Briefly, APEC O78 cultures grown in the presence of SMs (see above) were centrifuged at 5000 × g for 10 min, and cell-free culture supernatants were prepared by using a 0.22 µm filter 96 well plate (Millipore). The bioluminescence reporter V. harveyi BB170 (AI-1^+ and AI-2^-) was grown overnight in AB medium at 30 °C aerobically with shaking. The overnight culture was diluted to 1:5000 in fresh AB medium and incubated at 30 °C for 3 h. Following incubation, 180 μL of the V. harveyi BB170 culture was distributed into each well of a 96-well plate and mixed with 20 µL of the cell free culture supernatant, the plate was then incubated at 30 °C for 2.5 h in the dark and the bioluminescence was measured using in vivo imaging system (IVIS Lumina Series III, PerkinElmer, USA). […] Cell-free culture supernatants collected from overnight cultures of V. harveyi BB120 (AI-1^+andAI-2^+) and E. coli DH5α (a strain lacks AI-2) were used as controls. Bioluminescence of SMs treated culture supernatants were compared to DMSO treated control. The Z-score was calculated to evaluate the quality of the bioluminescence screening. Four independent experiments were conducted for the 69 compounds that inhibited ≥ 75% of the AI-2 mediated bioluminescence and the average inhibition percentage was calculated.
(§3) The selected compounds were also tested for inhibition of AI-2 production in other APEC serotypes such as O1, O2, O8, O15, O18, O35, O109, and O115 that are commonly implicated in colibacillosis using the same procedure described above.

AI-2 activity of O109 = assay: AI-2 bioluminescence indicator assay, APEC O109; format: cell-based, avian pathogenic E. coli (APEC) O109; conditions: Escherichia coli, read-out: % Inhibtion of AI-2 activity, serotype O109, bioluminescence vs DMSO treated control
Experimental: as §1, §2, §3

APEC O1 in HD-11 cells = assay: Intracellular survival assay, APEC O1 in HD-11 cells; format: cell-based, avian pathogenic E. coli (APEC) O1; conditions: MOI 100, 100 µM, 6 h; for reduction of intracellular survival of APEC O1: vs DMSO treated control
Experimental: (§4) The effect of the selected AI-2 inhibitors on the survival of APEC in macrophage cells was tested as described before. Briefly, HD-11 cells was grown as described above and infected with 1 × 10^7 CFU (MOI = 100) of mid-log phase APEC strains (O78, O1 and O2) at 37 °C for 1 h. Cells were washed with PBS and treated with gentamicin (150 μg/mL) for 1 h to kill the extracellular bacteria. The cells were then washed and incubated with 100 µM of each compound in media containing 10 μg/mL of gentamicin at 37 °C for 6 h. Following treatment, cells were washed, lysed with 0.1% Triton X-100 for 5 min, ten-fold serially diluted in PBS and plated on LB agar plates to determine CFUs. Cells treated with chloramphenicol (40 μg/mL) and 1 μL of 100% DMSO were used as controls. The experiment was conducted two times with four replicates in each experiment. Intracellular survival was expressed as the log change of APEC CFUs in the AI-2 inhibitors treated cells.

APEC O1 in THP-1 cells = assay: Intracellular survival assay, APEC O1 in THP-1 cells; format: cell-based, avian pathogenic E. coli (APEC) O1; conditions: MOI 100, 100 µM, 6 h, vs DMSO treated control
Experimental: as §4
(§5) Similarly, the intracellular survival assay was also performed in THP-1 cells (ATCC® TIB-202™) as described above. The THP-1 cells were grown in RPMI 1640 medium (Gibco) supplemented with 10% FBS and 2 mM glutamine. In order to differentiate the THP-1 monocyte to macrophage, 100 nM phorbol myristate acetate (PMA; Sigma-Aldrich) was added to the media. The cells (1.4 × 10^5 cells/well) were grown in a 96-well plate in a 5% CO2 incubator at 37 °C for 48 h, infected with APEC (MOI = 100), treated with each compound and the intracellular bacteria was determined as above.

[1] = test system: AI-2 activity of APEC O78; assay: AI-2 bioluminescence indicator assay (V. harveyi BB170), APEC O78 supernatant; format: cell-based, avian pathogenic E. coli (APEC) O78; conditions: Escherichia coli, read-out: AI-2-associated bioluminescence inhibition
Caco-2 cells = assay: Lactate dehydrogenase (LDH) cytotoxicity assay, Caco-2; format: cell-based, human; conditions: 100 µM, 24 h
Experimental: The selected 10 AI-2 inhibitors were evaluated for their toxicity to Caco-2 (ATCC® HTB-37™) using LDH assay. Briefly, Caco-2 cells (1.4 × 10^5 cells/well) were grown in a 96-well plate in minimal essential medium (MEM) supplemented with 20% fetal bovine serum (FBS; Gibco), 1% non-essential amino acid (NEAA, Invitrogen Life Technologies) and 1mM sodium pyruvate, at 37 °C in a humidified 5% CO2 incubator for 48 h until a complete monolayer was formed. For LDH assay, cells were washed twice with media containing no FBS/no antibiotics and incubated with 150 µL of fresh media containing 100 μM of each compound at 37 °C for 24 h in a humidified 5% CO2 incubator. Fifty microliters of supernatant was analyzed using LDH Cytotoxicity Assay Kit (Thermo Scientific).

APEC O78 in HD-11 cells = assay: Intracellular survival assay, APEC O78 in HD-11 cells; format: cell-based, avian pathogenic E. coli (APEC) O78; conditions: MOI 100, 100 µM, 6 h; for reduction of intracellular survival of APEC O78: vs DMSO treated control
Experimental: as §4

APEC O2 in THP-1 cells = assay: Intracellular survival assay, APEC O2 in THP-1 cells; format: cell-based, avian pathogenic E. coli (APEC) O2; conditions: MOI 100, 100 µM, 6 h; for reduction of intracellular survival of APEC O2: vs DMSO treated control
Experimental: as §4, §5

G. mellonella larvae = assay: Toxicity of SMs in wax moth larvae; format: in vivo, Galleria mellonella; conditions: uninfected larvae, 12.5 µg/larva (50 mg/kg), 72 h
Experimental: To confirm that the death of the larvae was not due to the compounds, intrinsic toxicity the AI-2 inhibitors were assessed in a separate experiment. G. mellonella larvae (fifth instar; n = 10) were inoculated with 8.5 µL of SMs (50 mg/kg body weight; 12.5 µg/ larva) into the hemocoel via the last left proleg. Post inoculation, larvae were placed inside sterile petri dishes and incubated in the dark at 37 °C for 72 h and larval survival was monitored every 24 h. Two independent experiments were conducted

| SMILES | inhibition at 100 µM (AI-2 activity of O15) | inhibition at 100 µM (AI-2 activity of O109) | clearance of intracellular APEC O1 (APEC O1 in HD-11 cells) | reduction of intracellular survival of APEC O1 (APEC O1 in HD-11 cells) | reduction of intracellular survival of APEC O1 (APEC O1 in THP-1 cells) | inhibition at 50 µM [1] | cytotoxicity (LDH release) (Caco-2 cells) | clearance of intracellular APEC O78 (APEC O78 in HD-11 cells) | reduction of intracellular survival of APEC O78 (APEC O78 in HD-11 cells) | clearance of intracellular APEC O2 (APEC O2 in THP-1 cells) | reduction of intracellular survival of APEC O2 (APEC O2 in THP-1 cells) | survival of larvae treated with compound (toxicity) (G. mellonella larvae) |
| --- | --- | --- | --- | --- | --- | --- | --- | --- | --- | --- | --- | --- |
| NC(=O)c1ccccc1Nc1cccc(C(F)(F)F)c1 [C3, 2-{[3-(trifluoromethyl)phenyl]amino}benzamide] | 0% | 0% | 100% | ~ 4 logs | up to 0.9 log | – | – | – | – | – | – | – |
| Cc1ccccc1N1CCN(C2CCCN(C(=O)c3ccc(F)c(Cl)c3)C2)CC1 (stereo not drawn) [C2, 1-[1-(3-chloro-4-fluorobenzoyl)-3-piperidinyl]-4-(2-methylphenyl)piperazine] | 27% | 57% | – | – | – | – | – | – | – | – | – | – |
| O=C(CCN1CCN(c2ccccc2F)CC1)Nc1ccc(Br)cc1 [C7, N-(4-bromophenyl)-3-[4-(2-fluorophenyl)-1-piperazinyl]propanamide] | 36% | 67% | – | – | – | 25% | – | – | – | – | – | – |
| OCCC1CN(C2CCN(c3ccccc3)CC2)CCN1CCCc1ccccc1 (stereo not drawn) [C10, 2-[4-(1-phenyl-4-piperidinyl)-1-(3-phenylpropyl)-2-piperazinyl]ethanol] | 22% | 57% | – | up to 0.9 logs | up to 0.9 log | 25% | 27% | 100% | ~ 4 logs | 100% | 4 logs | – |
| O=[N+]([O-])c1cccc(S(=O)(=O)Nc2ccc(Br)cc2)c1 [C6, N-(4-bromophenyl)-3-nit robenzenesulfonamide] | – | 60% | – | – | – | – | 27% | – | – | – | – | 100% |
| CS/C(N)=N/N=C/c1cc(C)ccc1O [C4, methyl N'-(2-hydroxy-5-methylbenzylidene)h ydrazonothiocarbamate] | 46% | 67% | – | – | – | – | 12% | – | up to 1 logs | – | – | – |
| COCCN1CCC(CN(Cc2ccncc2)Cc2ccccc2Cl)CC1 [C1, (2-chlorobenzyl){[1-(2-methoxyethyl)-4-piperidinyl]methyl}(4-pyridinylmethyl)amine] | 13% | 65% | – | – | up to 0.9 log | – | – | – | – | – | – | 100% |
| Cc1ccc(CN2CCN(CCCc3ccccc3)CC2)cc1 [C5, 1-(4-methylbenzyl)-4-(3-phenylpropyl)piperazine] | 45% | 69% | – | – | – | – | – | – | – | – | – | – |
| Fc1ccc(CN2CCCN(Cc3nc(-c4ccc(C(F)(F)F)cc4)no3)CC2)cc1 [C9, 1-(4-fluorobenzyl)-4-({3-[4-(trifluoromethyl)phenyl]-1,2,4-oxadiazol-5-yl}methyl)-1,4-diazepane] | 0% | 66% | – | – | up to 0.9 log | 25% | – | 100% | ~ 4 logs | 100% | 4 logs | – |
| CCc1ccccc1Nc1nc(-c2c(C)nc3ccccn23)cs1 [C8, N-(2-ethylphenyl)-4-(2-methylimidazo[1,2-a]pyridin-3-yl)-1,3-thiazol-2-amine] | 25% | ≥ 75% | – | – | – | – | 2% | – | up to 1 logs | – | – | – |

Source: publication PMC7000209, “Novel small molecule modulators of quorum sensing in avian pathogenic Escherichia coli (APEC)” (Virulence, 2018)
